From the NIST ThermoML archive (doi:10.1021/je400733m)

Conditions: for vapor or sublimation pressure: Liquid; for mass density: Gas, isochoric method

F [hydrogen fluoride]
Conditions | vapor or sublimation pressure [kPa]
293.12 K | 102.1
303.13 K | 145.3
313.16 K | 202.1
323.08 K | 274.7
333.13 K | 368.7
343.1 K | 487.1
353.14 K | 636.4

Conditions | mass density [kg/m3]
293.15 K, 27.7 kPa | 0.232
293.15 K, 29 kPa | 0.245
293.15 K, 31.8 kPa | 0.282
293.15 K, 34.5 kPa | 0.32
293.15 K, 37.2 kPa | 0.36
293.15 K, 41.5 kPa | 0.438
293.15 K, 55.5 kPa | 0.802
293.15 K, 69.3 kPa | 1.311
293.15 K, 83.3 kPa | 1.954
293.15 K, 98.6 kPa | 2.86
303.15 K, 26.4 kPa | 0.212
303.15 K, 29.4 kPa | 0.239
303.15 K, 34.2 kPa | 0.283
303.15 K, 38 kPa | 0.32
303.15 K, 41.5 kPa | 0.356
303.15 K, 45.1 kPa | 0.395
303.15 K, 52.7 kPa | 0.491
303.15 K, 64.8 kPa | 0.694
303.15 K, 78 kPa | 0.999
303.15 K, 90 kPa | 1.359
303.15 K, 102.6 kPa | 1.818
303.15 K, 114.8 kPa | 2.327
303.15 K, 126.7 kPa | 2.883
303.15 K, 141.6 kPa | 3.802
313.15 K, 29.3 kPa | 0.227
313.15 K, 35.9 kPa | 0.28
313.15 K, 36.4 kPa | 0.28
313.15 K, 39.6 kPa | 0.307
313.15 K, 41.4 kPa | 0.326
313.15 K, 42.5 kPa | 0.331
313.15 K, 48.3 kPa | 0.385
313.15 K, 53.3 kPa | 0.426
313.15 K, 55.1 kPa | 0.447
313.15 K, 57 kPa | 0.461
313.15 K, 62.1 kPa | 0.51
313.15 K, 68.9 kPa | 0.59
313.15 K, 74 kPa | 0.644
313.15 K, 82.8 kPa | 0.767
313.15 K, 90.7 kPa | 0.883
313.15 K, 96.6 kPa | 0.992
313.15 K, 109.1 kPa | 1.246
313.15 K, 110.3 kPa | 1.285
313.15 K, 124.3 kPa | 1.653
313.15 K, 129.3 kPa | 1.787
313.15 K, 138 kPa | 2.078
313.15 K, 148 kPa | 2.417
313.15 K, 152 kPa | 2.579
313.15 K, 165.7 kPa | 3.118
313.15 K, 165.8 kPa | 3.133
313.15 K, 180.3 kPa | 3.777
313.15 K, 180.5 kPa | 3.797
323.15 K, 55 kPa | 0.422
323.15 K, 100.9 kPa | 0.842
323.15 K, 117.9 kPa | 1.05
323.15 K, 156.9 kPa | 1.731
323.15 K, 181.4 kPa | 2.343
323.15 K, 204.5 kPa | 3.061
323.15 K, 228.7 kPa | 3.949
333.15 K, 29.2 kPa | 0.218
333.15 K, 99.9 kPa | 0.759
333.15 K, 112.6 kPa | 0.863
333.15 K, 142.2 kPa | 1.147
333.15 K, 163.7 kPa | 1.386
333.15 K, 180 kPa | 1.61
333.15 K, 199.2 kPa | 1.904
333.15 K, 222.8 kPa | 2.36
333.15 K, 234.8 kPa | 2.612
333.15 K, 246.2 kPa | 2.902
333.15 K, 270.8 kPa | 3.552
333.15 K, 276.4 kPa | 3.753
333.15 K, 305.8 kPa | 4.693
333.15 K, 317.3 kPa | 5.162
333.15 K, 341.5 kPa | 6.088
333.15 K, 343.5 kPa | 6.229
343.15 K, 24.6 kPa | 0.179
343.15 K, 67.3 kPa | 0.488
343.15 K, 141.7 kPa | 1.05
343.15 K, 244.7 kPa | 2.094
343.15 K, 289.6 kPa | 2.791
343.15 K, 340.6 kPa | 3.856
343.15 K, 375.4 kPa | 4.777
343.15 K, 414.8 kPa | 6.034
343.15 K, 455.3 kPa | 7.553
353.15 K, 50.5 kPa | 0.352
353.15 K, 118.5 kPa | 0.833
353.15 K, 189 kPa | 1.359
353.15 K, 279.3 kPa | 2.154
353.15 K, 334.2 kPa | 2.782
353.15 K, 391.1 kPa | 3.617
353.15 K, 450.1 kPa | 4.75
353.15 K, 509 kPa | 6.216
353.15 K, 583.5 kPa | 8.604
363.15 K, 78.7 kPa | 0.523
